Data: patent publication US9765018B2, “IDO inhibitors” (BRISTOL-MYERS SQUIBB COMPANY, priority 2013, dated 2017)

Assays:
IDO [1] = target: T1, IDO (Homo sapiens (Human), UniProt P14902); test: Kynurenine assay in IFN-γ-stimulated Hela cells; format: cell-based; settings: 20 h, read-out: Hela Kyurenine (IC50)
In short: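 Hela cells adhered 5-6 h, then received inhibitor (top dose 30 μM, 3-fold dilutions to 1.5 nM) plus 100 ng/mL human IFN-γ to induce IDO, 20 h at 37° C. TCA added, 30 min at 50° C hydrolyses N-formylkynurenine to kynurenine. Supernatant mixed with Ehrlich reagent, 10 min RT, absorbance 490 nm.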

IDO [2] = target: T1, IDO; test: LLE_IDO_ABS_DR (IDO assay, method not described)

T1 sequence (P14902 whole entry): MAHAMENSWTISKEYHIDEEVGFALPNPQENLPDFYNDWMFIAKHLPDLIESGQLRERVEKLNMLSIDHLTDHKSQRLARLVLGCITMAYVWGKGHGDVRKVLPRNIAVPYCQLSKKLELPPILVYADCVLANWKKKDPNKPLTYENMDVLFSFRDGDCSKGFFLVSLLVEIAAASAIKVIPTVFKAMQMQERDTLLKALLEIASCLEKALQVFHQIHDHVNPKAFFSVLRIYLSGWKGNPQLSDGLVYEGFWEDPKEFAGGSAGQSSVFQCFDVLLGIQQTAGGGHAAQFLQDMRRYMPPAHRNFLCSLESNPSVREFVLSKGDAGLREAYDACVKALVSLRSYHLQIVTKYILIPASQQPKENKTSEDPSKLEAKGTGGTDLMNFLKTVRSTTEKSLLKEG

Row | SMILES | IC50 (IDO [1]) | IC50 (IDO [2])
1 | Cc1ccccc1NC(=O)Nc1cc(-c2ccccc2-c2nnn[nH]2)ccc1Oc1cccc2c1CCCC2 [Example 187, 1-(4-(5,6,7,8-tetrahydronaphthalen-1-yloxy)-2′-(1H-tetrazol-5-yl)biphenyl-3-yl)-3-o-tolylurea] | 860 nM | 2330 nM
2 | Cc1ccccc1NC(=O)Nc1cc(-c2ccccc2-c2nnn[nH]2)ccc1Oc1ccccc1C(C)(C)C [Example 181, 1-(4-(2-tert-butylphenoxy)-2′-(1H-tetrazol-5-yl)biphenyl-3-yl)-3-o-tolylurea] | 90 nM | 740 nM
3 | CCCOc1c(C/C=C/c2ccccc2)cc(-c2ccccc2-c2nnn[nH]2)cc1NC(=O)Nc1ccc(C)cc1 [Example 34, (E)-1-(5-Cinnamyl-4-propoxy-2′-(1H-tetrazol-5-yl)biphenyl-3-yl)-3-p-tolylurea] |  | 170 nM
4 | C/C=C/Cc1cc(-c2ccccc2-c2nnn[nH]2)cc(NC(=O)Nc2ccc(C)cc2)c1OCc1ccccc1 [Example 25, (E)-1-(4-(Benzyloxy)-5-(but-2-en-1-yl)-2′-(1H-tetrazol-5-yl)-[1,1′-biphenyl]-3-yl)-3-(p-tolyl)urea] |  | 160 nM
5 | CCC[C@H](Oc1ccc(-c2ccccc2-c2nnn[nH]2)cc1NC(=O)Nc1ccc(C)cc1)c1ccccc1 [Example 274] |  | 3510 nM
6 | O=C(Nc1ccccc1F)Nc1cc(-c2cc(F)ccc2C(=O)O)cc(/C=C/C=C(F)F)c1OCCC(F)(F)F [Example 281] |  | 820 nM
7 | Cc1ccc(NC(=O)Nc2cc(-c3ccccc3-c3nnn[nH]3)ccc2OC(CCC(F)(F)F)c2ccccc2)cc1 (stereo not shown) [Example 310] |  | 1720 nM
8 | Cc1ccc(NC(=O)Nc2cc(-c3ccccc3C(=O)O)cc(C/C=C/C(F)(F)F)c2OCCC(F)(F)F)cc1 [Example 303] |  | 160 nM
9 | C=CC(c1ccccc1)c1cc(-c2ccccc2C(=O)O)cc(NC(=O)Nc2ccc(C)cc2)c1OC1CCC(F)(F)CC1 (stereo not shown) [Example 291] |  | 730 nM
10 | CCCC(CCC)Oc1ccc(-c2ccccc2C(=O)O)cc1NC(=O)Nc1ccc(C)cc1 [Example 14, 4′-(Heptan-4-yloxy)-3′-(3-(p-tolyl)ureido)-[1,1′-biphenyl]-2-carboxylic acid] |  | 600 nM
11 | CCCC(CCC)Oc1c(Br)cc(-c2ccccc2-c2nnn[nH]2)cc1NC(=O)Nc1ccc(C)cc1 [Example 286] |  | 470 nM
12 | Cc1ccc(NC(=O)Nc2cc(-c3ccccc3-c3nnn[nH]3)cc(CC3CC3)c2OCCC(F)(F)F)cc1 [Example 317] |  | 330 nM
13 | O=C(Nc1ccc(F)cc1F)Nc1cc(-c2ccccc2-c2nnn[nH]2)cc(CC2CC2)c1OCC1CC1 [Example 277] |  | 30 nM
14 | C/C=C/Cc1cc(-c2cc(F)ccc2C(=O)O)cc(NC(=O)Nc2ccc(C)cc2)c1OCCC [Example 21, (E)-3′-(But-2-en-1-yl)-5-fluoro-4′-propoxy-5′-(3-(p-tolyl)ureido)-[1,1′-biphenyl]-2-carboxylic acid] |  | 150 nM
15 | Cc1ccc(NC(=O)Nc2cc(-c3cc(F)ccc3C(=O)O)cc(C/C=C/C(F)(F)F)c2OCCC(F)(F)F)cc1 [Example 302] |  | 100 nM
16 | CCCOc1c(/C=C/C=C(F)F)cc(-c2cc(F)ccc2C(=O)O)cc1NC(=O)Nc1ccc(C)cc1 [Example 33, (E)-3′-(4,4-Difluorobuta-1,3-dien-1-yl)-5-fluoro-4′-propoxy-5′-(3-(p-tolyl)ureido)-[1,1′-biphenyl]-2-carboxylic acid] |  | 110 nM
17 | CCCOc1c(C/C=C/c2ccccc2)cc(-c2ccccc2-c2nnn[nH]2)cc1NC(=O)Nc1ccccc1F [Example 38, (E)-1-(5-Cinnamyl-4-propoxy-2′-(1H-tetrazol-5-yl)biphenyl-3-yl)-3-(2-fluorophenyl)urea] |  | 210 nM
18 | Cc1ccc(NC(=O)Nc2cc(-c3ccccc3-c3nnn[nH]3)cc(CC3CC3)c2OCC2CC2)cc1 [Example 324] |  | 1070 nM
19 | C/C=C/Cc1cc(-c2ccccc2C(=O)O)cc(NC(=O)Nc2ccc(C)cc2)c1OCc1ccccc1 [Example 26, (E)-4′-(Benzyloxy)-3′-(but-2-en-1-yl)-5′-(3-(p-tolyl)ureido)-[1,1′-biphenyl]-2-carboxylic acid] |  | 650 nM
20 | CCCOc1c(CCC)cc(-c2ccccc2C(=O)O)cc1NC(=O)Nc1ccc(C)cc1 [Example 17, 4′-Propoxy-3′-propyl-5′-(3-(p-tolyl)ureido)-[1,1′-biphenyl]-2-carboxylic acid] |  | 200 nM

Continued, values first:

Row | IC50 (IDO [1]) | IC50 (IDO [2]) | SMILES
21 | 400 nM | 520 nM | CCCc1ccccc1Oc1ccc(-c2ccc(OC)c(C(=O)O)c2)cc1NC(=O)Nc1ccccc1Cl [Example 74, 3′-(3-(2-chlorophenyl)ureido)-4-methoxy-4′-(2-propylphenoxy)biphenyl-3-carboxylic acid]
22 | 780 nM | 8150 nM | Cc1cccc(NC(=O)Nc2cc(-c3ccc(C(=O)O)cc3)ccc2Oc2ccccc2C(C)(C)C)c1 [Example 201, 4′-(2-tert-butylphenoxy)-3′-(3-m-tolylureido) biphenyl-4-carboxylic acid]
23 | 270 nM | 580 nM | COc1ccc(-c2ccc(Oc3ccc4c(c3)CCCC4)c(NC(=O)Nc3ccccc3C)c2)cc1C(=O)O [Example 146, 4-methoxy-4′-(5,6,7,8-tetrahydronaphthalen-2-yloxy)-3′-(3-o-tolylureido)biphenyl-3-carboxylic acid]
24 | 150 nM | 390 nM | COc1ccc(-c2ccc(Oc3ccccc3C(C)(C)C)c(NC(=O)Nc3cccc(C)c3)c2)cc1C(=O)O [Example 45, 4′-(2-tert-butylphenoxy)-4-methoxy-3′-(3-m-tolylureido)biphenyl-3-carboxylic acid]
25 | 280 nM | 330 nM | COc1ccc(-c2ccc(Oc3ccccc3C(C)(C)C)c(NC(=O)Nc3ccccc3Cl)c2)c(C(=O)O)c1 [Example 164, 4′-(2-tert-butylphenoxy)-3′-(3-(2-chlorophenyl)ureido)-4-methoxybiphenyl-2-carboxylic acid]
26 | 390 nM | 460 nM | COc1cc(C(=O)O)c(-c2ccc(Oc3ccccc3C(C)(C)C)c(NC(=O)Nc3ccc(C)cc3)c2)cc1OC [Example 165, 4′-(2-tert-butylphenoxy)-4,5-dimethoxy-3′-(3-p-tolylureido)biphenyl-2-carboxylic acid]
27 | 810 nM | 2230 nM | Cc1ccc(NC(=O)Nc2cc(-c3ccc(F)cc3C(=O)O)ccc2Oc2ccccc2C(C)(C)C)cc1 [Example 170, 4′-(2-tert-butylphenoxy)-4-fluoro-3′-(3-p-tolylureido)biphenyl-2-carboxylic acid]
28 | 190 nM | 760 nM | COc1ccc(-c2ccc(Oc3ccccc3C3CC3)c(NC(=O)Nc3cccc(C)c3)c2)cc1C(=O)O [Example 126, 4′-(2-cyclopropylphenoxy)-4-methoxy-3′-(3-m-tolylureido)biphenyl-3-carboxylic acid]
29 | 280 nM | 320 nM | Cc1ccc(NC(=O)Nc2cc(-c3cccc(Cl)c3C(=O)O)ccc2Oc2ccccc2C(C)(C)C)cc1 [Example 174, 4′-(2-tert-butylphenoxy)-3-chloro-3′-(3-p-tolylureido)biphenyl-2-carboxylic acid]
30 | 150 nM | 510 nM | COc1ccc(-c2ccc(Oc3cccc4c3CCC4)c(NC(=O)Nc3cccc(C)c3)c2)cc1C(=O)O [Example 144, 4′-(2,3-dihydro-1H-inden-4-yloxy)-4-methoxy-3′-(3-m-tolylureido)biphenyl-3-carboxylic acid]
31 | 130 nM | 320 nM | COc1ccc(-c2ccc(Oc3ccccc3C(C)(C)C)c(NC(=O)Nc3cccc(Cl)c3Cl)c2)cc1C(=O)O [Example 81, 4′-(2-(tert-butyl)phenoxy)-3′-(3-(2,3-dichlorophenyl)ureido)-4-methoxy-[1,1′-biphenyl]-3-carboxylic acid]
32 | 1300 nM | 3630 nM | CC(C)(C)c1ccccc1Oc1ccc(-c2cc(Cl)ccc2C(=O)O)cc1NC(=O)Nc1ccccc1Cl [Example 166, 4′-(2-tert-butylphenoxy)-5-chloro-3′-(3-(2-chlorophenyl)ureido)biphenyl-2-carboxylic acid]
33 | 440 nM | 10000 nM | COc1ccc(-c2ccc(Oc3ccccc3C(C)(C)C)c(NC(=O)Nc3ccc(C(F)(F)F)cc3)c2)cc1C(=O)O [Example 43, 4′-(2-tert-butylphenoxy)-4-methoxy-3′-(3-(4-(trifluoromethyl)phenyl)ureido)biphenyl-3-carboxylic acid]
34 | 180 nM | 640 nM | COc1ccc(-c2ccc(Oc3ccccc3C(C)C)c(NC(=O)Nc3ccccc3C)c2)cc1C(=O)O [Example 64, 4′-(2-isopropylphenoxy)-4-methoxy-3′-(3-o-tolylureido)biphenyl-3-carboxylic acid]
35 | 240 nM | 660 nM | Cc1ccc(NC(=O)Nc2cc(-c3cc(Cl)ccc3C(=O)O)ccc2Oc2ccccc2C(C)(C)C)cc1 [Example 168, 4′-(2-tert-butylphenoxy)-5-chloro-3′-(3-p-tolylureido)biphenyl-2-carboxylic acid]
36 | 130 nM | 390 nM | CCc1ccccc1Oc1ccc(-c2ccc(OC)c(C(=O)O)c2)cc1NC(=O)Nc1cccc(C)c1 [Example 57, 4′-(2-ethylphenoxy)-4-methoxy-3′-(3-m-tolylureido)biphenyl-3-carboxylic acid]
37 | 700 nM | 3940 nM | Cc1ccc(NC(=O)Nc2cc(-c3cc(Cl)cc(C(=O)O)c3)ccc2Oc2ccccc2C(C)(C)C)cc1 [Example 246, 4′-(2-tert-butylphenoxy)-5-chloro-3′-(3-p-tolylureido) biphenyl-3-carboxylic acid]
38 |  | 690 nM | CCC(Oc1ccc(-c2cc(F)ccc2C(=O)O)cc1NC(=O)Nc1ccc(C)cc1)c1ccccc1 (stereo not shown) [Example 268]
39 |  | 1860 nM | CC(C)(C)c1ccccc1Oc1ccc(-c2ccc(F)cc2-c2nnn[nH]2)cc1NC(=O)Nc1ccccc1Cl [Example 195, 1-(4-(2-tert-butylphenoxy)-4′-fluoro-2′-(1H-tetrazol-5-yl)biphenyl-3-yl)-3-(2-chlorophenyl)urea]
